Data on 2 compounds can be found in patent US20210393521A1, “PREPARATION OF A PHARMACEUTICAL COMPOSITION OF OLODATEROL, TIOTROPIUM BROMIDE AND BUDESONIDE” (priority 2020, published 2021).

The nature of data set [1]: Solubility test of BD in SBECD and Tween 80 solutions. The data set is classed as physicochemical. The method, then: Solubility test to investigate the solubilizing effect of SBECD and Tween 80 as solubilizers on BD, and to investigate the solubility of BD at different concentrations.
Investigation of the solubility of BD under different concentrations of SBECD: Weigh 0.1 g, 0.3 g, 0.5 g, and 1.0 g of […] into a 10 ml EP tube, add 10 ml of pure water, and shake until the […] is completely dissolved, then add excess BD (about 500 mg/100 mL), and wrap the EP tube in tin foil to protect from light. After protecting from light, place the EP tube on a shaker, shake for 24 hours, and centrifuge to collect the supernatant.

The conditions of data set [2]: background statement; cited from earlier work.

Converted amounts (≈) assume the structure as drawn.

As for `CCCC1O[C@@H]2C[C@H]3[C@@H]4CCC5=CC(=O)C=C[C@]5(C)[C@H]4[C@@H](O)C[C@]3(C)[C@]2(C(=O)CO)O1` (stereo partly drawn) [BD, 11β,21-dihydroxy-16α,17α-(butylidenebis(oxy))pregna-1,4-diene-3,20-dione], the “BD Solubility” value in data set [1] (SBECD concentration 1%) is 16.91 mg/100 ml; in data set [1] (SBECD concentration 3%), 40.28 mg/100 ml; in data set [1] (SBECD concentration 5%), 61.91 mg/100 ml; in data set [1] (SBECD concentration 10%) it was 81.3 mg/100 ml; in data set [1] (Tween 80 concentration 5 mg/100 ml), 0.224 mg/100 ml; in data set [1] (Tween 80 concentration 10 mg/100 ml), 0.256 mg/100 ml. For the same compound, the “BD Solubility” value stood at 0.292 mg/100 ml in data set [1] (Tween 80 concentration 20 mg/100 ml); 16.54 mg/100 ml in data set [1] (Tween 80 concentration 1%); 38.88 mg/100 ml in data set [1] (Tween 80 concentration 3%); 64.84 mg/100 ml in data set [1] (Tween 80 concentration 5%); 118.79 mg/100 ml in data set [1] (Tween 80 concentration 10%). Also, the concentration in solution in data set [1] (Tween 80 solution in water, aqueous with cosolvent or surfactant or cyclodextrin, thermodynamic from solid, Tween 80 concentration 20 mg/100 ml) (solubility at 24 h) came to 2.92 µg/mL (≈ 6.78 µM).
With `COc1ccc(CC(C)(C)NC[C@H](O)c2cc(O)cc3c2OCC(=O)N3)cc1` [Olodaterol, 6-hydroxy-8-[(1R)-1-hydroxy-2-{[1-(4-methoxyphenyl)-2-methylpropan-2-yl]amino}ethyl]-3,4-dihydro-2H-1,4-benzoxazin-3-one], in data set [2], the half-life entry is recorded as “more than 12 h” and the “maintains bronchiectatic activity for” value is given as 24 h.
